Reference: article PMC5791972 (PLoS ONE, 2018)
pIC50: −log10 of the molar value. “Also recorded” adds a separate entry of the source. Read-outs that look alike come from different tables or passages of the source.

Assays:
GABAB(1b) (h) = GABAB(1b) (h) (Homo sapiens, UniProt Q9UBS5); assay: biochemical
ETB (h) = molecular target: T1, ETB (h) (Homo sapiens, UniProt P24530); type: binding
T1 construct: host or cells: CHO cells
T1 sequence (P24530 27-442): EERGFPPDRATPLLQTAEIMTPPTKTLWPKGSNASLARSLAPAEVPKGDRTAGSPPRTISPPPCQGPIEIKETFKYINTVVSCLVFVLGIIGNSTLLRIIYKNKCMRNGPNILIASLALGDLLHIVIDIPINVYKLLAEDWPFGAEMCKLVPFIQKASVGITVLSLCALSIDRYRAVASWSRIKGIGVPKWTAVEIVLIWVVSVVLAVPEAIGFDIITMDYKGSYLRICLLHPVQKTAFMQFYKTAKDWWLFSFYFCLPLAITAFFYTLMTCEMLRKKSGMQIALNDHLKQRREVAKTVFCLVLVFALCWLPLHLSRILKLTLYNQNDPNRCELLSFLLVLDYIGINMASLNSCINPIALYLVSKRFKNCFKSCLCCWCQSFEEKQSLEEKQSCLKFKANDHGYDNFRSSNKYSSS

COX2 (h) = molecular target: T2, COX2 (h) (Homo sapiens, UniProt P35354); assay: enzyme assay; type: biochemical; details: 1.0E-06 M
T2 construct: Cerep (contract assay); host or cells: Sf9 cells
T2 sequence (P35354 18-604): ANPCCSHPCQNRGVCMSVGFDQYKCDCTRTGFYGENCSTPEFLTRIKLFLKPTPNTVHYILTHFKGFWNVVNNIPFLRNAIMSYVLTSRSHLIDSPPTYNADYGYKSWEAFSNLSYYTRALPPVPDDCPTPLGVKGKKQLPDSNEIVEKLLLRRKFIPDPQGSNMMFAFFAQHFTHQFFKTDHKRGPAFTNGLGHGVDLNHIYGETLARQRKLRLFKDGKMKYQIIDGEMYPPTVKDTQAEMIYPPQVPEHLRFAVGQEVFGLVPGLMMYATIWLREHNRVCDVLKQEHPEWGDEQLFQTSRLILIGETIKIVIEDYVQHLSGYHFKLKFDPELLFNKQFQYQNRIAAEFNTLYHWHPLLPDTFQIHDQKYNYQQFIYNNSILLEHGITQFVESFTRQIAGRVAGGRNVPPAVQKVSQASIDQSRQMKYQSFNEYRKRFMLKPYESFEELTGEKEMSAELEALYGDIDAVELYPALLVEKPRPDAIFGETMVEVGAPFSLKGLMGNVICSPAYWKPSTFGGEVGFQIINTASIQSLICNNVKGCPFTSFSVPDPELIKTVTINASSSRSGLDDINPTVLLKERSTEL

H4 (h) = molecular target: T3, H4 (h) (Homo sapiens, UniProt Q9H3N8); type: binding; details: 1.0E-06 M
T3 construct: host or cells: HEK-293 cells
T3 sequence (Q9H3N8 whole entry): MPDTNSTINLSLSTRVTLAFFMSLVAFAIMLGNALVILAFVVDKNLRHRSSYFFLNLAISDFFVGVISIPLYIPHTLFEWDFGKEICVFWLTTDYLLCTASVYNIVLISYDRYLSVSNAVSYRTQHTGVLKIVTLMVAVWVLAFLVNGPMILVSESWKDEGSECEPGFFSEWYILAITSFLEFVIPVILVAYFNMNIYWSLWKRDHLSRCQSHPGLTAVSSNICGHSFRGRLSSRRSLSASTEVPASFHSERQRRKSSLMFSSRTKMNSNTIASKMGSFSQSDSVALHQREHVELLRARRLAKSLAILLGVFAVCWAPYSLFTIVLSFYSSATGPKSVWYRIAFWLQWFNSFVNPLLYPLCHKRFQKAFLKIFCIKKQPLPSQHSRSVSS

TRPM8 = TRPM8 (Homo sapiens, UniProt Q7Z2W7); assay: cell-based
A2A (h) = A2A (h) (Homo sapiens, UniProt P29274); details: 1.0E-06 M
A2A (h), sequence (P29274 whole entry): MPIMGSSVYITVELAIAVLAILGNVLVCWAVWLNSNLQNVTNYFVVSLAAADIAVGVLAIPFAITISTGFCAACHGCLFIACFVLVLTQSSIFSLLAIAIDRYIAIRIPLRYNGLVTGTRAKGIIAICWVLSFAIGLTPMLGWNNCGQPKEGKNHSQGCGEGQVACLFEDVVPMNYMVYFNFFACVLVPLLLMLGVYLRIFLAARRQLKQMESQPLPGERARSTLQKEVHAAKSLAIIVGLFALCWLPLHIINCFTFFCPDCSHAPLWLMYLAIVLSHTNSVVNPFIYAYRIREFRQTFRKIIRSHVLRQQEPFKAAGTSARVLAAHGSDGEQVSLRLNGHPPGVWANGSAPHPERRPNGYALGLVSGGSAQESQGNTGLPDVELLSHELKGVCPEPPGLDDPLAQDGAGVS

SKCa channel = type: binding, rat; details: 1.0E-06 M
CB2 (h) = molecular target: T4, CB2 (h) (Homo sapiens, UniProt P34972); type: binding; details: 1.0E-06 M
T4 construct: host or cells: CHO cells
T4 sequence (P34972 whole entry): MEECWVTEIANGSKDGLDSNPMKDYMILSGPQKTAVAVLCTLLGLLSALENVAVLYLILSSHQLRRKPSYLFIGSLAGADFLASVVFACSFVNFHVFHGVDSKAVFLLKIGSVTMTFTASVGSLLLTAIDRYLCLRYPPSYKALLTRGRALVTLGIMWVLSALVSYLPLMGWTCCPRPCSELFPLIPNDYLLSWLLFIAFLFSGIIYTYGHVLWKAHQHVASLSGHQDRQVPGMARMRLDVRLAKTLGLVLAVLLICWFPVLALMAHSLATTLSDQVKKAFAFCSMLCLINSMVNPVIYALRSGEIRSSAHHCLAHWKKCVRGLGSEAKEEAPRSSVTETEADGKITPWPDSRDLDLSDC

[1] = molecular target: carbonic anhydrase II (h) (Homo sapiens, UniProt P00918); assay: biochemical; details: 1.0E-06 M
ACE (h) = molecular target: T5, ACE (h) (Homo sapiens, UniProt P12821); assay: enzyme assay; type: biochemical; details: 1.0E-06 M
T5 construct: Cerep (contract assay)
T5 sequence (P12821 30-1306): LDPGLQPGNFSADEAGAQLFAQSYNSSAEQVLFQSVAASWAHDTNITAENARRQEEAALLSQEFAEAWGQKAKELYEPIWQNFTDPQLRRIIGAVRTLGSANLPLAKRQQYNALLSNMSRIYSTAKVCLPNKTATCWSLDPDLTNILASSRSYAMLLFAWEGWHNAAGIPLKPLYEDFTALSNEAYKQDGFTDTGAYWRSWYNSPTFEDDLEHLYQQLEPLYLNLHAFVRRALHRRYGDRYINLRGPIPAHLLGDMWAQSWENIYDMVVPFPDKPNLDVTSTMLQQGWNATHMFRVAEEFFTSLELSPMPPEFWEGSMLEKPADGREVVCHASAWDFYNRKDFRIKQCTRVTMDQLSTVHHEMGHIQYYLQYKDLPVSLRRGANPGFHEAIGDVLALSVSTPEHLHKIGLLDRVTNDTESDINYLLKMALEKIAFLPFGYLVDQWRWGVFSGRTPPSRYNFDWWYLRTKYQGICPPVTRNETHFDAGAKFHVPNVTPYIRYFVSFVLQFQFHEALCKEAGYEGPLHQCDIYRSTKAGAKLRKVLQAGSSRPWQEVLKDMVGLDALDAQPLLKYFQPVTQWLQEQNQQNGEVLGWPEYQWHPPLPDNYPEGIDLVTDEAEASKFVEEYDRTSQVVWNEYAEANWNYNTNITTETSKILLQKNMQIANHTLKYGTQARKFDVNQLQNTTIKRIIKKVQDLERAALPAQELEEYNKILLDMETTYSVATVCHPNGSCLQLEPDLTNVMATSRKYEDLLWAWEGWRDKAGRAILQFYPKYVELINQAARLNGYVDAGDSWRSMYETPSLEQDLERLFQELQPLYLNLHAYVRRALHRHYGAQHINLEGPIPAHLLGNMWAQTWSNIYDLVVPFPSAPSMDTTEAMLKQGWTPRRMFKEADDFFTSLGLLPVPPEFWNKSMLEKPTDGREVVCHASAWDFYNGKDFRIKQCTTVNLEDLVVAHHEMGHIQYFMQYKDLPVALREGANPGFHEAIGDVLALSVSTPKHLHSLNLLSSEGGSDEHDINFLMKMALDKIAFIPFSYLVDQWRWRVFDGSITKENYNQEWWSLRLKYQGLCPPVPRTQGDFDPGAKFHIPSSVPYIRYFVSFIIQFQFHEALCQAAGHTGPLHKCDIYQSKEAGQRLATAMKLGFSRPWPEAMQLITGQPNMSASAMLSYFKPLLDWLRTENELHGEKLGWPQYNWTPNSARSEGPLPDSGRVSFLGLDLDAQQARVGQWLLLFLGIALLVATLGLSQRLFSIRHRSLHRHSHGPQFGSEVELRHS

α1 (non-selective) = type: binding, rat; details: 1.0E-06 M
rolipram = type: binding, mouse; details: 1.0E-06 M
H3 (h) = molecular target: T6, H3 (h) (Homo sapiens, UniProt Q9Y5N1); type: binding
T6 construct: host or cells: CHO cells
T6 sequence (Q9Y5N1 whole entry): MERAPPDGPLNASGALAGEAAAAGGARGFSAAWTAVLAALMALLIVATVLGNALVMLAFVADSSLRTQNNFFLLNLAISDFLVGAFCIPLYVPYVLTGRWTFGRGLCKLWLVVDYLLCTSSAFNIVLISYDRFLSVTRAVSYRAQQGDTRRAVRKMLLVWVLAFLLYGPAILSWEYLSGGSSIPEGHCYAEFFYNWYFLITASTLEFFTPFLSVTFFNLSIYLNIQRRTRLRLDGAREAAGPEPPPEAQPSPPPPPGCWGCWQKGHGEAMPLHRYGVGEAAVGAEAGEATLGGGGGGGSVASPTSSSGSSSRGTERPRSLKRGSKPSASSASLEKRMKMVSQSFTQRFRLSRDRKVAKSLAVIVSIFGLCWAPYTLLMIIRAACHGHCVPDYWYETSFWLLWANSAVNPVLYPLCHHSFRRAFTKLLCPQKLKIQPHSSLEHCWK

[2] = molecular target: T7, FLT-1 kinase (h) (VEGFR1) (Homo sapiens, UniProt P17948); assay: enzyme assay; type: biochemical; details: 1.0E-06 M
T7 construct: host or cells: Sf9 cells

κ (KOP) = κ (KOP) (Rattus norvegicus, UniProt P34975); assay: biochemical
κ (KOP), sequence (P34975 whole entry): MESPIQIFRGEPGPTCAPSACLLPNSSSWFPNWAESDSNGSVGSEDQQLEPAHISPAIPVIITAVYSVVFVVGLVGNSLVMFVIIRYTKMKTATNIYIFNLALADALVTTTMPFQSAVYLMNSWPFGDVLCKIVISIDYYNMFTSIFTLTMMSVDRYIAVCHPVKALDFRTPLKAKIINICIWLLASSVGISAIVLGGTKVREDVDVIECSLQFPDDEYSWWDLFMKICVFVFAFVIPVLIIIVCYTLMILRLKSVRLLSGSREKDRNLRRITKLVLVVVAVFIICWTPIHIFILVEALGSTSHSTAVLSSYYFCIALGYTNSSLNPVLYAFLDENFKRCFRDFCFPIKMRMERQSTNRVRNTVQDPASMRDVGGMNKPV

in vitro = details: plasma
NMRI mice = assay: Locomotor activity; type: in vivo, mouse; details: 0.1, 3 or 10 mg/kg PO
Method: NMRI mice were habituated to their room for at least 2 weeks after the delivery and kept under standard conditions in groups of 4–5 animals per cage. Food and water were available ad libitum.
Spontaneous motility and rearing were measured by an automated system (Coulbourn Instruments, USA). Animals were introduced into transparent square cages (40 cm length) that are equipped with 2 light barrier systems in order to monitor the movements as well as rearing behavior automatically. The movements of the animals were recorded for 30 minutes. At the end of the experiment, the animals were sacrificed via isofluorane inhalation and subsequent decapitation.

[3] = tested on: basolateral amygdala neurons; assay: Slice recordings of CCK-4 induced EPSCs; type: cell-based, mouse
C57BL/6 (CSD) mice = assay: Chronic social defeat and fear learning and memory; type: in vivo, mouse; details: 1 mg/kg oral
[4] = 1.0E-06 M, read-out: % Inhibition 2nd
[5] = 1.0E-06 M, read-out: % Inhibition Mean

GABAB(1b) (h), sequence (Q9UBS5 1-844 isoform Q9UBS5-2): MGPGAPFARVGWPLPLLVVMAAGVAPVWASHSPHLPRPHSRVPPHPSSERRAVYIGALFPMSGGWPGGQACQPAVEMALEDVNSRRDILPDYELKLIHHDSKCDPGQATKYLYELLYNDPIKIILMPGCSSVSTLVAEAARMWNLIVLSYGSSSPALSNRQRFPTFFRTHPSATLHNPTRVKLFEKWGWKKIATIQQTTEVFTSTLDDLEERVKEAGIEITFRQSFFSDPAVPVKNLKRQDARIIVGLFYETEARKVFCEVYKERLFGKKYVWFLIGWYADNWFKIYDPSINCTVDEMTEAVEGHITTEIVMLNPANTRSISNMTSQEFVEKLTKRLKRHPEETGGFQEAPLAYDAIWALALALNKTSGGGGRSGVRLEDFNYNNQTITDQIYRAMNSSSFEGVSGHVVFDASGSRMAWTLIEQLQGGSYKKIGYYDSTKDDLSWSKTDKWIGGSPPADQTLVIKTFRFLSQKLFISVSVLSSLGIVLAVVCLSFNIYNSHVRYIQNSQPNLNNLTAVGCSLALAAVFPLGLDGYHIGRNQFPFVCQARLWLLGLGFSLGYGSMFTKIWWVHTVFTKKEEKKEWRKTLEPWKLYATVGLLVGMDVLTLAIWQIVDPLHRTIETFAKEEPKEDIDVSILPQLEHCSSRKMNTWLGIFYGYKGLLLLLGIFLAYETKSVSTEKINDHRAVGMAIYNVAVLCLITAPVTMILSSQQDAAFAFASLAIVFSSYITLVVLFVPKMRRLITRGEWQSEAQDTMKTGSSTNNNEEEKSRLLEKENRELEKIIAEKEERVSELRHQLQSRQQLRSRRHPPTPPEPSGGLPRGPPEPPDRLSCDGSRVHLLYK
GABAB(1b) (h), sequence (O75899 42-941 partner): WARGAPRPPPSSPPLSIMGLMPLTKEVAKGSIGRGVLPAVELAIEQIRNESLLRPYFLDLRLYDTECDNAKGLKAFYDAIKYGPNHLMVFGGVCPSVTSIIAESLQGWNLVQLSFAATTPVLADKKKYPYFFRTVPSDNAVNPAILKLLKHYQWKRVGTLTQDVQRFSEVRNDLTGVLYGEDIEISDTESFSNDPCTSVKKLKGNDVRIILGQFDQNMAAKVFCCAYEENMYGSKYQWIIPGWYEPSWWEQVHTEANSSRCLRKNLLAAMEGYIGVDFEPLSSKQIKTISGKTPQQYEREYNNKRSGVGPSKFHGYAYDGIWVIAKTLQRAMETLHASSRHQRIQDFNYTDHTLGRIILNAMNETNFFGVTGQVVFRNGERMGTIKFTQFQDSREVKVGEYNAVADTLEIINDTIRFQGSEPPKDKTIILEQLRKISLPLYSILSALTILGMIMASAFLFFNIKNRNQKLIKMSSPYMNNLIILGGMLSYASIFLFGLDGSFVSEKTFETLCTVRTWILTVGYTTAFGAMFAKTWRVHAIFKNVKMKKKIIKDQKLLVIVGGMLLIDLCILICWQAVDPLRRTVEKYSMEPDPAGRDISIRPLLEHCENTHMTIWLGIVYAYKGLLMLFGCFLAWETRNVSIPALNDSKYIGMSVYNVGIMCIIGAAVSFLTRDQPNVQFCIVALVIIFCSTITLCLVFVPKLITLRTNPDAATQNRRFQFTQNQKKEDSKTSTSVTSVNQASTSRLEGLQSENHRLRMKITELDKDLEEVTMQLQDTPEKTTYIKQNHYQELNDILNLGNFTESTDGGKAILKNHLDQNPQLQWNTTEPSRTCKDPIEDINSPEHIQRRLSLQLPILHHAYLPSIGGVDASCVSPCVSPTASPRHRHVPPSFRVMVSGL

Cn1c(=O)n(CCCO)c(=O)c2c1nc(Oc1cccc(OC(F)(F)F)c1)n2Cc1ccc(Cl)cc1 [HC-608]
inhibition at 1 µM (GABAB(1b) (h); read-out: % Inhibition 1st): -9% | inhibition at 1 µM (GABAB(1b) (h); read-out: % Inhibition 2nd): -7.8% | inhibition at 1 µM (GABAB(1b) (h); read-out: % Inhibition Mean): -8.4% | inhibition at 1 µM (ETB (h); [4]): -0.1% | inhibition at 1 µM (ETB (h); [5]): 12.7% | inhibition at 1 µM (ETB (h); read-out: % Inhibition 1st): 25.5% | inhibition at 1 µM (COX2 (h); read-out: % Inhibition 1st): -5.6% | inhibition at 1 µM (COX2 (h); read-out: % Inhibition 2nd): 11.8% | inhibition at 1 µM (COX2 (h); read-out: % Inhibition Mean): 3.1% | inhibition at 1 µM (H4 (h); read-out: % Inhibition 1st): -13.6% | inhibition at 1 µM (H4 (h); read-out: % Inhibition 2nd): -1.9% | inhibition at 1 µM (H4 (h); read-out: % Inhibition Mean): -7.8% | pIC50 (TRPM8): < 5.79 | % Inhibition 1st (A2A (h)): 20.8% | % Inhibition 2nd (A2A (h)): 31.1% | % Inhibition Mean (A2A (h)): 25.9% | % Inhibition 1st (SKCa channel): -2.5% | % Inhibition 2nd (SKCa channel): -4.7% | % Inhibition Mean (SKCa channel): -3.6% | inhibition at 1 µM (CB2 (h); read-out: % Inhibition 1st): 16.6% | inhibition at 1 µM (CB2 (h); read-out: % Inhibition 2nd): 25.1% | inhibition at 1 µM (CB2 (h); read-out: % Inhibition Mean): 20.9% | inhibition at 1 µM ([1]; read-out: % Inhibition 1st): -0.9% | inhibition at 1 µM ([1]; read-out: % Inhibition 2nd): 0.2% | inhibition at 1 µM ([1]; read-out: % Inhibition Mean): -0.4% | inhibition at 1 µM (ACE (h); read-out: % Inhibition 1st): 0% | inhibition at 1 µM (ACE (h); read-out: % Inhibition 2nd): 6% | inhibition at 1 µM (ACE (h); read-out: % Inhibition Mean): 3% | % Inhibition 1st (α1 (non-selective)): -2.8% | % Inhibition 2nd (α1 (non-selective)): 1.1% | % Inhibition Mean (α1 (non-selective)): -0.8% | % Inhibition 1st (rolipram): -4.6% | % Inhibition 2nd (rolipram): 0.5% | % Inhibition Mean (rolipram): -2.1% | inhibition at 1 µM (H3 (h); [4]): -0.8% | inhibition at 1 µM (H3 (h); [5]): -13.4% | inhibition at 1 µM (H3 (h); read-out: % Inhibition 1st): -25.9% | inhibition at 1 µM ([2]; read-out: % Inhibition 1st): 9.3% | inhibition at 1 µM ([2]; read-out: % Inhibition 2nd): 7.3% | inhibition at 1 µM ([2]; read-out: % Inhibition Mean): 8.3% | inhibition at 1 µM (κ (KOP); read-out: % Inhibition 1st): -8.1% | inhibition at 1 µM (κ (KOP); read-out: % Inhibition 2nd): 1.1% | inhibition at 1 µM (κ (KOP); read-out: % Inhibition Mean): -3.5%

Cn1c(=O)n(CCCO)c(=O)c2c1nc(Oc1cccc(Cl)c1)n2Cc1ccc(Cl)cc1 [HC-070]
fraction unbound (in vitro): 0.004 | locomotor activity (NMRI mice): not impacted | effect on CCK-4 stimulated increase of postsynaptic currents ([3]; 20 nM, CCK-4 1 μM): pronounced attenuation of the CCK-4 related effect | basal synaptic activity prior to CCK-4 addition ([3]; slices pretreated with 20 nM HC-070, n = 8): 154±35 postsynaptic currents/minute | CS fear memory in CSD mice (C57BL/6 (CSD) mice): tended to reduce | context fear memory in CSD mice (C57BL/6 (CSD) mice): significantly reduced | freezing in inter-trial intervals between CS presentations, CSD mice (C57BL/6 (CSD) mice): ameliorated to the level of control mice; also recorded: reduced fear memory in CSD mice
